These results are taken from patent US5939437A, “CCK and gastrin receptor ligands” (James Black Foundation Limited, priority 1994, dated 1999).

For one experiment, the target named is T1, CCKB (Mus musculus, UniProt P56481).
T1 construct: The cortex was dissected, weighed and homogenised in 40 ml ice-cold buffer; from tissue; host or cells: cerebral cortex membranes of male CD1 mice (Charles River)
T1 sequence (P56481 1-453): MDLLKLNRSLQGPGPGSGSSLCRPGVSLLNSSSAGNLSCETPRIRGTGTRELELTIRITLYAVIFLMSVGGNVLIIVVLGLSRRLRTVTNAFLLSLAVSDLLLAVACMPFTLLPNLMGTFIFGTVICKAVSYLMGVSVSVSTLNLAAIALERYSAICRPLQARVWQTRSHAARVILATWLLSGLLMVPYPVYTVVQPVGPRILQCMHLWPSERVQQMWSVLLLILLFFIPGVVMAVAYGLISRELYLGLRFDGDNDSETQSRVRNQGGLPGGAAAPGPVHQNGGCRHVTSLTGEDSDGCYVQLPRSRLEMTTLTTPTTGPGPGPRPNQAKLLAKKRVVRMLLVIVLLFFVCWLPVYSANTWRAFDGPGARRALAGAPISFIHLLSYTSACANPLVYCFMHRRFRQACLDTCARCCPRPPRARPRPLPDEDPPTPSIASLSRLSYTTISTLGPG
The experiment in a line: radioligand binding assay at the CCKB (CCK8 [sic]) receptor in mouse cortical membranes. The settings on record: [125I]-CCK8S 200 pM, 150 min at 21±3° C.; for Ki: read-out: CCKB pKi (converted). As for the experimental part: The compounds of the examples were tested for binding at the CCK8 receptor in mouse cortical membranes by means of a radioligand binding assay. The procedure was as follows: The whole brains from male mice (CD1 22-25 g; Charles River) were removed and placed in ice-cold buffer (pH7.2@21±3° C.) of the following composition (mM); 10 HEPES, 130 NaCl, 4.7 KCl, 5 MgCl2, 1 EDTA and containing 0.25 g.1^-1 bacitracin. The cortex was dissected, weighed and homogenised in 40 ml ice-cold buffer using a Teflon-in-glass homogeniser. The homogenate was centrifuged at 39,800 g for 20 min at 4° C., the supernatant discarded and the pellet resuspended by homogenisation in fresh buffer. The homogenate was recentrifuged (39,800 g; 20 min@4° C.) and the final pellet was resuspended in HEPES buffer to give a tissue concentration of 2 mg.ml^-1 (original wet weight). The membranes ([…]) were incubated for 150 min at 21±3° C. in a final volume of 0.5 ml with HEPES buffer containing [^25 I]-CCK8S (0.05 ml; 200 pM NEN 2200 Ci.mmol^-1) and competing compound. Total and non-specific binding of [^125 I]-CCK8S were defined using 0.05 ml of buffer and 0.05 ml of […] L-365,260, respectively. The assay was terminated by rapid filtration through pre-soaked Whatman GF/B 35 filters using a Brandell Cell harvester. The filters were washed (3×3 ml) with ice-cold 5 mM Tris-HCl (pH7.4@4° C.) and bound radioactivity determined by counting (1 min.) in a gamma-counter.

The target of another experiment is T2, Gastrin (Rattus norvegicus, UniProt P30553).
T2 construct: The stomach was excised and flushed with ca. 1 ml unbuffered physiological saline solution; from tissue; host or cells: isolated whole stomach of immature rats (33-50 g, ca. 21 days old)
T2 sequence (P30553 1-452): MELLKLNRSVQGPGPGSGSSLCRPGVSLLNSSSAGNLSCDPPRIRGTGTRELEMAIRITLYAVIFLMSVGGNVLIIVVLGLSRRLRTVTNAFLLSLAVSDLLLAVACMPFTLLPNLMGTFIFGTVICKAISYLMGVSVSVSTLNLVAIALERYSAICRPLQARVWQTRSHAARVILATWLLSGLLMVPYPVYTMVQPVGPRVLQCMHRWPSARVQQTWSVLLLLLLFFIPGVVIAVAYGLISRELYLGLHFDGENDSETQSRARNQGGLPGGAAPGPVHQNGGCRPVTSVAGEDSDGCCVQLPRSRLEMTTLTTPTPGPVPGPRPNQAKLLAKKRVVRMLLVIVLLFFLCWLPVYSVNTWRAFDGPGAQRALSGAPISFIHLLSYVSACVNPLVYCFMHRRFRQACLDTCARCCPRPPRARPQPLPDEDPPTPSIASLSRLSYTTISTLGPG
The experiment in a line: gastrin antagonist activity in an immature rat stomach assay (pentagastrin-stimulated acid secretion, isolated stomach). Particulars: cumulative pentagastrin dose-response curves, 60 min after drug; for Kb: read-out: Gastrin pKB (converted). As for the experimental part: The compounds of the examples were also tested for gastrin antagonist activity in an immature rat stomach assay. The procedure was follows:
The oesophagus of immature rats (33-50 g, ca. 21 days old) was ligated at the level of the cardiac sphincter and the duodenal sphincter was cannulated. The stomach was excised and flushed with ca. 1 ml unbuffered physiological saline solution. The fundus was punctured and cannulated. A further 4-5 ml of unbuffered solution was flushed through the stomach to ensure the preparation was not leaking. The stomach was lowered into a jacketed organ bath containing 40 ml of buffered solution containing 3×10^-8 M5methylfurmethide, maintained at 37° and gassed vigorously with 95% O2 /5% CO2. The stomach was continuously perfused at a rate of 1 ml min^-1 with unbuffered solution gassed with 100% O2 with the perfusate passing over an internally referenced pH-electrode fixed 12 cm above the stomach.
After 120 min of stabilisation the drugs were added directly to the serosal solution in the organ bath and after a further 60 min cumulative pentagastrin dose-response curves were started. Changes in acid secretion were monitored and the curves analysed according to Black et. al., Br. J. Pharmacol., 1985, 86, 581.

In another experiment the target is T3, CCKA (Cavia porcellus, UniProt Q63931).
T3 construct: The pancreatata were homogenised in 40 ml ice-cold HEPES buffer; from tissue; host or cells: pancreas membranes of male Dunkin Hartley guinea-pigs
T3 sequence (Q63931 1-430): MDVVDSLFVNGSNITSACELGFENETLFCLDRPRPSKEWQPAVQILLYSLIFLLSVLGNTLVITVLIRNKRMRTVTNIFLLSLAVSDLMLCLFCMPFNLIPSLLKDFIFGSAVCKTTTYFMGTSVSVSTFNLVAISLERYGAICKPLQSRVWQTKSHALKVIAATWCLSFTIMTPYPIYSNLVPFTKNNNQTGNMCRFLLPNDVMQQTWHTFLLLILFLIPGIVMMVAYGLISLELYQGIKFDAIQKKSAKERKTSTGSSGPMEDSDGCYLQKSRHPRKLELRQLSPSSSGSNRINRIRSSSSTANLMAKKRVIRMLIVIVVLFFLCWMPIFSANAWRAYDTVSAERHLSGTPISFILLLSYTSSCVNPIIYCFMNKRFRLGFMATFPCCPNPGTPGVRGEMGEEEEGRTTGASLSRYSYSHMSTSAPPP
Put plainly: CCKA binding assay (guinea-pig pancreas membranes). Particulars: [125I]-CCK8(S) 200 pM, 0.375 μM PD134,308 present, 150 minutes at 21±3° C.; for Ki: read-out: CCKA pKi (converted). As for the experimental part:
The compounds of the examples were also tested in a CCKA binding assay as follows:
The pancreatata were removed from male guinea-pigs (200-300 g; Dunkin Hartley) and placed in ice-cold HEPES buffer (pH 7.2@21 ±3° C.). The pancreatata were homogenised in 40 ml ice-cold HEPES buffer using a polytron (Brinkman, PT10, setting 10) 4×1 second. The homogenate was centrifuged at 39,800 g for 15 min at 4° C. The supernatant was discarded and the pellet re-suspended using a Teflon-in-glass homogeniser in 20 volumes of fresh buffer and re-centrifuged as above. The final pellet was re-suspended using a Teflon-in-glass homogeniser to a tissue concentration of 1 mg.ml^-1 (original wet weight), and filtered through 500 μm pore-size Nytex mesh.
The membranes (400 μl; containing 0.375 μM PD134,308) are incubated for 150 minutes at 21±3° C. in a final volume of 0.5 ml with HEPES buffer containing [^125 I]-CCK8 (S) (50 μl; 200 pM) and competing compound. Total and non-specific binding of [^125 I]-CCK^8 (S) are defined using 50 μl of buffer and 50 μl of 100 nM L-364,718respectively. The assay is terminated by rapid filtration through pre-soaked Whatman GF/B filters using a Brandell Cell Harvester. The filters were washed (3×3 ml) with ice-cold 50 mM Tris HCl (pH 7.4 at 4° C. and bound radioactivity is determined by counting (1 min) in a gamma counter.

For the molecule `O=C(O)c1cc(NC(=O)[C@H](Cc2ccccc2)NC(=O)c2c[nH]cc2C(=O)NCC23CC4CC(CC(C4)C2)C3)cc(C(=O)O)c1` [Example 13, 3-(1S-(3,5-dicarboxyphenylamino-carbonyl)-2-phenylethylaminocarbonyl)-4-(1-adamantanemethylamino-carbonyl)pyrrole], the Ki was 63.1 nM on CCKB and 2000 nM at CCKA. In addition, the Kb on Gastrin is 25.1 nM.

For the molecule `O=C(O)c1cc(NC(=O)[C@H](Cc2ccccc2)NC(=O)c2ccc([N+](=O)[O-])cc2C(=O)NCC23CC4CC(CC(C4)C2)C3)cc(C(=O)O)c1` [Example 14, 1-(1S-(3,5-dicarboxyphenylamino-carbonyl)-2-phenylethylaminocarbonyl)-2-(1-adamantanemethyl-aminocarbonyl)-4-nitrobenzene], the Ki on CCKB was 501 nM; at CCKA it was 3160 nM. In addition, the Kb at Gastrin was 100 nM.

On to `O=C(O)c1cc(NC(=O)[C@H](Cc2ccccc2)NC(=O)c2ccccc2C(=O)NCc2ccc3ccccc3c2)cc(C(=O)O)c1` [Example 6, (1R-(3,5-dicarboxyphenylaminocarbonyl)-2-phenylethylaminocarbonyl)-2-(2-naphthalenemethylaminocarbonyl)-benzene], for which the “CCKB pKi” value on CCKB turned out to be 6.3. The “Gastrin pKB” value at Gastrin is 6.1. Besides, the “CCKA pKi” value at CCKA is on record as 6.3.

Regarding `O=C(O)c1cc(NC(=O)[C@H](Cc2ccccc2)NC(=O)c2ccccc2C(=O)NCC23CC4CC(CC(C4)C2)C3)cc(C(=O)O)c1` [Example 1, (1S-(3,5-dicarboxyphenylaminocarbonyl)-2-phenylethylaminocarbonyl)-2-(1-adamantanemethylaminocarbonyl)-benzene], at CCKB, the Ki was 79.4 nM. The Kb on Gastrin was 3.98 nM. For the same molecule, the “CCKA pKi” value on CCKA is recorded as 5.5.

With `O=C(O)c1cc(NC(=O)[C@H](Cc2ccc(O)cc2)NC(=O)c2ccccc2C(=O)NCC23CC4CC(CC(C4)C2)C3)cc(C(=O)O)c1` [Example 2, (1S-(3,5-dicarboxyphenylaminocarbonyl)-2-(4-hydroxyphenyl)-ethylaminocarbonyl)-2-(1-adamantanemethyl-aminocarbonyl)-benzene], the Ki at CCKB was 1260 nM; on CCKA, 1580 nM. Moreover, the Kb on Gastrin was 25.1 nM.

With `O=C(O)c1cc(NC(=O)[C@@H](Cc2ccccc2)NC(=O)c2ccccc2C(=O)NCC23CC4CC(CC(C4)C2)C3)cc(C(=O)O)c1` [Example 3, (1R-(3,5-dicarboxyphenylaminocarbonyl)-2-phenylethylaminocarbonyl)-2-(1-adamantanemethylaminocarbonyl)-benzene], the Ki was 398 nM on CCKB and 7940 nM at CCKA. For the same molecule, the Kb on Gastrin was 15.8 nM.

In the case of `O=C(O)c1cc(NC(=O)[C@H](Cc2ccccc2)NC(=O)c2cc([N+](=O)[O-])ccc2C(=O)NCC23CC4CC(CC(C4)C2)C3)cc(C(=O)O)c1` [Example 15, 1-(1S-(3,5-dicarboxyphenylamino-carbonyl)-2-phenylethylaminocarbonyl)-2-(l-adamantanemethyl-aminocarbonyl)-5-nitrobenzene], the Ki at CCKB and at CCKA was 1000 nM throughout. For the same molecule, the Kb at Gastrin is 316 nM.

Turning to `O=C(O)c1cc(NC(=O)[C@H](Cc2ccccc2)NC(=O)c2ncccc2C(=O)NCC23CC4CC(CC(C4)C2)C3)cc(C(=O)O)c1` [Example 10, 2-(1S-(3,5-dicarboxyphenylamino-carbonyl)-2-phenylethylaminocarbonyl)-3-(1-adamantanemethylamino-carbonyl)pyridine], the values for the Ki at CCKB and on CCKA were 794 nM and 2000 nM, respectively. Moreover, the Kb on Gastrin is 39.8 nM.

For the molecule `COc1ccc(C(=O)NCC23CC4CC(CC(C4)C2)C3)c(C(=O)N[C@@H](Cc2ccccc2)C(=O)Nc2cc(C(=O)O)cc(C(=O)O)c2)c1` [Example 19, 1-(1S-(3,5-dicarboxyphenylamino-carbonyl)-2-phenylethylaminocarbonyl)-2-(1-adamantanemethyl-aminocarbonyl)-5-methoxybenzene], the Ki at CCKB is 158 nM; at CCKA, 2000 nM. Besides, the Kb on Gastrin is 12.6 nM.

For the molecule `O=C(O)c1cc(NC(=O)[C@H](Cc2ccccc2)N2Cc3cccc(C(=O)NCC45CC6CC(CC(C6)C4)C5)c3C2=O)cc(C(=O)O)c1` [Example 27, 7-(1-adamantanemethylaminocarbonyl)-2-(1S-(3,5-dicarboxyphenylaminocarbonyl)-2-phenylethyl) indol-1-one], the Ki at CCKB was 126 nM; on CCKA, 3160 nM.
